Molecules are shown by their SMILES.

This experiment concerns healthy skin of light type II. Kind of experiment: Photoprotection study in volunteers with oral carotinoid supplementation over 12 weeks. It is filed as in vivo, human. Here is the method: The carotinoid absorption and photoprotection studies were carried out using a panel of 36 volunteers with healthy skin of light type II (Fitzpatrick & Pathak test). The starting values for each volunteer were determined at the beginning of the 12-week study. An interim study was conducted after 6 weeks and the final study after 12 weeks. The volunteers were divided into three groups of twelve who received the following daily doses: • 1st group: 25 mg Betatene® (corresponds to 24 mg β-carotene) • 2nd group: 8.3 mg Betatene® (corresponds to 8 mg β-carotene), 8 mg lycopene, 8 mg lutein (Xangold®) • 3rd group: placebo capsules.
The carotinoids were administered in soft gelatine capsules with 140 mg soybean oil.
The concentration of β-carotene, lycopene and lutein in the skin was determined by reflection spectrometry which was carried out on an area of 1 cm^2 of the forehead, the back of the hand, the palm of the hand, the inside of the lower arm and the back. The change in color of the skin during supplementation was differentiated by a Minolta chromameter (L, a, b system) into reddening of the skin (a values), yellow component (b values) and lightness of the skin (L values). The concentration of β-carotene, lycopene and lutein in the serum was determined by high-pressure liquid chromatography (HPLC). […]

For `CC1=C(/C=C/C(C)=C/C=C/C(C)=C/C=C/C=C(C)/C=C/C=C(C)/C=C/C2=C(C)CCCC2(C)C)C(C)(C)CCC1` [β-carotene], the “photoprotection of the skin in relation to the blank value (in words)” value (12 weeks of daily oral dosing, versus placebo group 3) is “doubles the photoprotection of the skin”. For the setting “average of 12 volunteers per group after 12 weeks of daily oral dosing in soft gelatine capsules with soybean oil, relative to blank value (group 3, no carotinoids = 100), group 1: 24 mg β-carotene, group 2: 8 mg each of β-carotene, lycopene, lutein”, this compound returned a Photoprotection of 200 %-rel.

(Values after US20050031557A1, “Oral administration of beta-carotene, lycopene and lutein for human skin protection” (priority 1999, published 2005).)
